According to PMC11678425, “(-)-Syringaresinol Exerts an Antidepressant-like Activity in Mice by Noncompetitive Inhibition of the Serotonin Transporter” (Pharmaceuticals, 2024):

Columns and labels:
hSERT P499G [1] = biological target: T1, hSERT P499G (Homo sapiens, UniProt P31645, P499G); assay: ASP^+ binding, hSERT P499G; conditions: S2 site mutant, read-out: SYR IC50 for Binding
T1 construct: forward and reverse primers were used to amplify a full-length hSERT; expressed in transfected cells; host or cells: HeLa cells, transient, pcDNA3.1

hSERT WT [2] = biological target: T2, hSERT WT (Homo sapiens, UniProt P31645); assay: ASP^+ binding, hSERT WT; conditions: digitonin-permeabilized cells, read-out: SYR IC50 for Binding
T2 construct: forward and reverse primers were used to amplify a full-length hSERT; expressed in transfected cells; host or cells: HeLa cells (CCL-2), transient, pcDNA3.1

hSERT = hSERT (Homo sapiens, UniProt P31645); assay type: cell-based; parameters: forward and reverse primers were used to amplify a full-length hSERT; expressed in transfected cells; host or cells: HeLa
[3] = test system: BDNF, PSD-95, GluA1, and vGluT1; assay: Immunoblot of synaptic proteins in hippocampus of CUMS mice; assay type: in vivo, mouse; conditions: same dosage as fluoxetine (10 mg/kg i.p.)
From the text: Figure 8 SYR effects on the expression of c-Fos and synaptic proteins in the hippocampus. (A) Representative immunohistochemical images of c-Fos expression in the hippocampus with the indicated treatments. (B) Quantitative analysis for hippocampal c-Fos expression with various treatments. Protein expression level is expressed as a percentage of c-Fos fluorescence measured in the control group. Bars represent the mean ± SEM (n = 4). ** p < 0.01 compared with the control or CUMS group by one-way ANOVA followed by post hoc tests. (C) Representative immunoblots of the synaptic proteins BDNF, PSD-95, GluA1, and vGluT1 with various treatments. (D–G) Quantification of the expression of synaptic proteins BDNF (D), PSD-95 (E), GluA1 (F), and vGluT1 (G). The expression level is expressed as a percentage of the integrated density obtained from the control group. Bars represent the mean ± SEM (n = 4). * p < 0.05, ** p < 0.01 by one-way ANOVA followed by post hoc tests.
Synaptic proteins were extracted from mPFC or hippocampus tissues using RIPA lysis buffer, respectively. Expression of the indicated proteins under various treatments was then analyzed by immunoblotting, as previously reported. […] Quantification of immunoreactive protein bands was performed using Image J v1.53u, and GAPDH was used as an internal reference to normalize expression levels of those proteins, respectively.

hSERT S438T = biological target: T3, hSERT S438T (Homo sapiens, UniProt P31645, S438T); assay: APP^+ uptake, hSERT S438T; assay type: cell-based; conditions: S1 site mutant, read-out: SYR IC50 for Transport
T3 construct: forward and reverse primers were used to amplify a full-length hSERT; expressed in transfected cells; host or cells: HeLa
Description: (§1) HeLa cells were cultured in Dulbecco’s Modified Eagle’s Medium supplemented with 10% fetal bovine serum, 100 units/mL penicillin, and 100 μg/mL streptomycin at 37 °C in a humidified 5% CO2 incubator. Cells grown at ~70% confluence in a 6 cm culture dish were transfected with hSERT cDNA in pcDNA3.1 by lipofectamine 2000. Transfected cells were incubated for 12 h at 37 °C with 5% CO2 and then transferred into 96-well plates. After being grown for an additional 12–16 h, the cells were then assayed for APP^+ uptake or ASP^+ binding.
(§2) Measurement of transport or ligand binding activity of SERT was performed by using its fluorescent substrate (APP^+) or ligand (ASP^+), respectively. The cells transiently expressing WT or mutants of hSERT were applied for various treatments. Briefly, the cells were washed twice with 100 μL KRH buffer containing 20 mM HEPES (Neofroxx, Einhausen, Germany), pH 7.4, 120 mM NaCl, 1.3 mM KCl, 2.2 mM CaCl2, 1.2 mM MgSO4, and 0.1% (w/v) glucose. APP^+ uptake was measured by adding 100 μL KRH buffer containing 2 μM APP^+ and incubating for 5 min at 22 °C. Excess APP^+ was then removed by 3× rapid washing with 100 μL KRH buffer each time. The extent of APP^+ accumulated in the cells was determined by fluorescence spectrometry with an Infinite 200 Pro microplate reader (Tecan, Männedorf, Switzerland). […]

hSERT G498T [4] = biological target: T4, hSERT G498T (Homo sapiens, UniProt P31645, G498T); assay: APP^+ uptake, hSERT G498T; assay type: cell-based; conditions: S2 site mutant, read-out: SYR IC50 for Transport
T4 construct: forward and reverse primers were used to amplify a full-length hSERT; expressed in transfected cells; host or cells: HeLa cells, transient, pcDNA3.1

hSERT I172F = biological target: T5, hSERT I172F (Homo sapiens, UniProt P31645, I172F); assay: APP^+ uptake, hSERT I172F; assay type: cell-based; conditions: S1 site mutant, read-out: SYR IC50 for Transport
T5 construct: forward and reverse primers were used to amplify a full-length hSERT; expressed in transfected cells; host or cells: HeLa
Description: as §1, §2

hSERT F556A = biological target: T6, hSERT F556A (Homo sapiens, UniProt P31645, F556A); assay: APP^+ uptake, hSERT F556A; assay type: cell-based; conditions: S2 site mutant, read-out: SYR IC50 for Transport
T6 construct: forward and reverse primers were used to amplify a full-length hSERT; expressed in transfected cells; host or cells: HeLa cells, transient, pcDNA3.1

hSERT S559A = biological target: T7, hSERT S559A (Homo sapiens, UniProt P31645, S559A); assay: APP^+ uptake, hSERT S559A; assay type: cell-based; conditions: S2 site mutant, read-out: SYR IC50 for Transport
T7 construct: forward and reverse primers were used to amplify a full-length hSERT; expressed in transfected cells; host or cells: HeLa cells, transient, pcDNA3.1

hSERT WT [5] = biological target: T2, hSERT WT; assay: APP^+ uptake, hSERT WT; assay type: cell-based
hSERT G498T [6] = biological target: T4, hSERT G498T; assay: ASP^+ binding, hSERT G498T; conditions: S2 site mutant, read-out: SYR IC50 for Binding
hSERT P499G [7] = biological target: T1, hSERT P499G; assay: APP^+ uptake, hSERT P499G; assay type: cell-based; conditions: S2 site mutant, read-out: SYR IC50 for Transport

T2 sequence (P31645 whole entry): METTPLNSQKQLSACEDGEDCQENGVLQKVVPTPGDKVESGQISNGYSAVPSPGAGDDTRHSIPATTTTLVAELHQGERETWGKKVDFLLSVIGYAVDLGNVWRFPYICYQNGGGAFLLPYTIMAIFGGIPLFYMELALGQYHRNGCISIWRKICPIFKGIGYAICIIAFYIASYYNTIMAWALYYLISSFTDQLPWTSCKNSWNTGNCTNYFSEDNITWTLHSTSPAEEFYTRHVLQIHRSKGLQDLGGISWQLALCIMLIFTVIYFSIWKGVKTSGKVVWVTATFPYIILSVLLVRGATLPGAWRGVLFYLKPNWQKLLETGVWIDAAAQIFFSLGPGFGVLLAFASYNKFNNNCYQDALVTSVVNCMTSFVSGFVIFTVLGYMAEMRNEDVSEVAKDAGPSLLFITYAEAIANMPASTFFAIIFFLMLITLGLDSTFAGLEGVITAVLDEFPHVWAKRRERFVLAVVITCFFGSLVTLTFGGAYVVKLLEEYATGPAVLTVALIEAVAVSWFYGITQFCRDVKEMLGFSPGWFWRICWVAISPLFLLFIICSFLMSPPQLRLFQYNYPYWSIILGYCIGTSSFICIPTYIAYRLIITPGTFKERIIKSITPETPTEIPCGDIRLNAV
T4 sequence (P31645 whole entry G498T): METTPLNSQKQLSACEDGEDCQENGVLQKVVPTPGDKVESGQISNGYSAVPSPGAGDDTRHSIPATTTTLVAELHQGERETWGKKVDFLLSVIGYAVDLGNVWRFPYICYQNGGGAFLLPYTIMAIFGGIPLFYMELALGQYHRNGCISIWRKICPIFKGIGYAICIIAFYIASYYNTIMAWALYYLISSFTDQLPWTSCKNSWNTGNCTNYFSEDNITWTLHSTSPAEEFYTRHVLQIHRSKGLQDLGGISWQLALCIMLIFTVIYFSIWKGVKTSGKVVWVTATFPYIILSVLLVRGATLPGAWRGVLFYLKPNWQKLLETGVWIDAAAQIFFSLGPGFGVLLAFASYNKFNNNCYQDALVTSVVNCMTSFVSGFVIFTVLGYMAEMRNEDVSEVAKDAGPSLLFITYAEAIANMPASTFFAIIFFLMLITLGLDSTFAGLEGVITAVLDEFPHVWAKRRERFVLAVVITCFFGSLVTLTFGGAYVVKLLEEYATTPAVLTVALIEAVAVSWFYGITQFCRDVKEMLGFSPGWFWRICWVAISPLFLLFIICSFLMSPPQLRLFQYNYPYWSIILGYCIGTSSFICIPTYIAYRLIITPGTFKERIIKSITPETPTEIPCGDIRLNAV
T1 sequence (P31645 whole entry P499G): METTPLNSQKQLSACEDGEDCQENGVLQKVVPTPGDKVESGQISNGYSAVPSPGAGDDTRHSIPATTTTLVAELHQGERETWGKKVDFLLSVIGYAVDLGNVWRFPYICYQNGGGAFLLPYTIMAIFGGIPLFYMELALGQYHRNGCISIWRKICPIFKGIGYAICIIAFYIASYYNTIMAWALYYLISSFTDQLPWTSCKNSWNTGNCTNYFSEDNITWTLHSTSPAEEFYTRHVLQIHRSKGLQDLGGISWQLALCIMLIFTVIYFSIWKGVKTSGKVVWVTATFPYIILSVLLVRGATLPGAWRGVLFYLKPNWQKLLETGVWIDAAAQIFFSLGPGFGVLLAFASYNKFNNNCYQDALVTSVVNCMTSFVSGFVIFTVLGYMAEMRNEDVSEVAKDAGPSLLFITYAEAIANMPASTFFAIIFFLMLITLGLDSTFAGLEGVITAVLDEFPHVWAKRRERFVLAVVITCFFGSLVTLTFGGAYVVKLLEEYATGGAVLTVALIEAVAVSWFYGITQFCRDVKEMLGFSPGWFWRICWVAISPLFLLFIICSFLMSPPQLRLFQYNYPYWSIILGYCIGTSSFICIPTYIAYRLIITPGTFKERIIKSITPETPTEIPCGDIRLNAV
T7 sequence (P31645 whole entry S559A): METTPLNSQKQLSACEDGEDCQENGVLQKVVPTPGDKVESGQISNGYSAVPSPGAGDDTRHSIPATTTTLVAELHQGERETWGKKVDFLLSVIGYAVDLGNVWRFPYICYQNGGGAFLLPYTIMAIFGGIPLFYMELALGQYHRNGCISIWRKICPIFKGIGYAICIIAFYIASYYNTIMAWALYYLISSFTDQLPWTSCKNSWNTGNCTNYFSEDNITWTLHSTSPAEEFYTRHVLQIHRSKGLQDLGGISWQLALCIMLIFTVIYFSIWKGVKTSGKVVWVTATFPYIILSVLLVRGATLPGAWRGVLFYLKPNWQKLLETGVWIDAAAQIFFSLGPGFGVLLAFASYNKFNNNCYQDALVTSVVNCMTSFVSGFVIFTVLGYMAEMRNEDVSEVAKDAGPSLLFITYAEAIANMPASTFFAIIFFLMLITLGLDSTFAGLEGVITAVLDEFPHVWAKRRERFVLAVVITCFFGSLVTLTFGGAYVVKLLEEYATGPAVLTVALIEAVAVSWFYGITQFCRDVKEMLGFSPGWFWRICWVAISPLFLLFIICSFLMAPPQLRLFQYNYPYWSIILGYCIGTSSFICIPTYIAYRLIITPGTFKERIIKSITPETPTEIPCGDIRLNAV
T3 sequence (P31645 whole entry S438T): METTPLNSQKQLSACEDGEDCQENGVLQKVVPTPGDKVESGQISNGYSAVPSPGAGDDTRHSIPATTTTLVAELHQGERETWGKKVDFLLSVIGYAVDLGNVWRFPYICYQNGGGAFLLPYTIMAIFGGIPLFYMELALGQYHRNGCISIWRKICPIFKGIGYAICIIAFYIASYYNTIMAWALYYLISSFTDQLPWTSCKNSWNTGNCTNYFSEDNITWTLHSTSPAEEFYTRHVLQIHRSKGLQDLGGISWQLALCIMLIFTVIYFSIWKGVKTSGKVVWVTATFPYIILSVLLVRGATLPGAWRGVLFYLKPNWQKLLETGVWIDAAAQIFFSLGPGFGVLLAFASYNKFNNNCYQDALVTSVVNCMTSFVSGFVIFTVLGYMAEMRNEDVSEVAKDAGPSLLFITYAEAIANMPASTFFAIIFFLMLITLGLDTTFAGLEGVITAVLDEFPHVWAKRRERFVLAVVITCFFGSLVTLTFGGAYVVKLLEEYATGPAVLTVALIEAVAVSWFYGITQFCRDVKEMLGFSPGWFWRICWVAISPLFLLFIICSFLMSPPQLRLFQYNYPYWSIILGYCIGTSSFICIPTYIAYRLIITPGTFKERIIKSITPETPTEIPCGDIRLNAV
T6 sequence (P31645 whole entry F556A): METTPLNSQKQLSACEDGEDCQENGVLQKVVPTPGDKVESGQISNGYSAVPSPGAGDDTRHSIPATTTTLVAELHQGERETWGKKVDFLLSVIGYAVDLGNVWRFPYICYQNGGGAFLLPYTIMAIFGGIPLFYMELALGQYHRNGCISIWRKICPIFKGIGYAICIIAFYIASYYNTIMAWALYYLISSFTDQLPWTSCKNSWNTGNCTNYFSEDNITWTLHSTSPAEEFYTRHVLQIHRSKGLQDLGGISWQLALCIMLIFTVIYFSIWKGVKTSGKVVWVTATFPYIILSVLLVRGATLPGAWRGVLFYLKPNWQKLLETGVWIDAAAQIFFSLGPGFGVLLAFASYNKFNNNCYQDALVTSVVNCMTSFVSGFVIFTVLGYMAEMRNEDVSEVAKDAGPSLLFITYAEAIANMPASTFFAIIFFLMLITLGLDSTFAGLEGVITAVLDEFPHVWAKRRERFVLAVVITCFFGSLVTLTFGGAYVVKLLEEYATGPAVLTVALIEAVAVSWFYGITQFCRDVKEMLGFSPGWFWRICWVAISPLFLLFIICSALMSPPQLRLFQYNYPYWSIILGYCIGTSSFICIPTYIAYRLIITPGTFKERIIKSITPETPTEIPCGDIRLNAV
hSERT, sequence (P31645 whole entry): as the sequence (P31645 whole entry) above
T5 sequence (P31645 whole entry I172F): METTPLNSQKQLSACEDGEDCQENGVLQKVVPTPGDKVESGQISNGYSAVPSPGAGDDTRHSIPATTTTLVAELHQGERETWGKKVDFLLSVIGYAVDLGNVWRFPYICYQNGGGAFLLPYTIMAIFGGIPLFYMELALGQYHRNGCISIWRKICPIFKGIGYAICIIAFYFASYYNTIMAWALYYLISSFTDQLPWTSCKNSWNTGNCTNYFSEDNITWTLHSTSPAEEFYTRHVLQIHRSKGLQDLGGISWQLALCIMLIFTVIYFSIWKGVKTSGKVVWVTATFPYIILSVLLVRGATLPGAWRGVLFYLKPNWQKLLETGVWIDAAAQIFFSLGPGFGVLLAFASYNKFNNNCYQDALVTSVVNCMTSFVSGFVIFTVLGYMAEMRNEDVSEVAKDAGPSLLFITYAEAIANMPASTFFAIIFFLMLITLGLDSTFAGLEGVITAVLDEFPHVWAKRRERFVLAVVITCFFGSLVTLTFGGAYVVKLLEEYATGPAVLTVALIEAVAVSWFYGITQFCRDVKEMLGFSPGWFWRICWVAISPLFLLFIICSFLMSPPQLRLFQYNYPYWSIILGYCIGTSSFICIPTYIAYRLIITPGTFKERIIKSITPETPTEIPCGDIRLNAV

COc1cc([C@@H]2OC[C@@H]3[C@H]2CO[C@H]3c2cc(OC)c(O)c(OC)c2)cc(OC)c1O [SYR, (-)-syringaresinol]
IC50 (hSERT P499G [1]): 46.8 ± 2.35 µM | IC50 (hSERT WT [2]): 0.96 ± 0.02 µM | hSERT expression on the cell surface (hSERT): did not alter | CUMS-induced decrease in expression of synaptic proteins in the hippocampus [3]: effectively alleviate | IC50 (hSERT S438T): 0.91 ± 0.02 µM | IC50 (hSERT G498T [4]): 40.5 ± 0.54 µM | IC50 (hSERT I172F): 2.22 ± 0.04 µM | IC50 (hSERT F556A): 7.39 ± 1.12 µM | IC50 (hSERT S559A): 19.5 ± 1.46 µM | IC50 (hSERT WT [5]; WT, APP^+ uptake, SYR added 5 min prior to APP^+, read-out: SYR IC50 for Transport): 0.25 ± 0.01 µM | Vmax of APP^+ transport with addition of SYR (hSERT WT [5]; […] SYR): 12.95 ± 1.52 AFU/min | increase of inhibitory potency compared with SAG (hSERT WT [5]; compared with glycoside derivative SAG): approximately 10 fold | mode of inhibition of APP^+ transport (hSERT WT [5]; decreased Vmax, little change in Km): noncompetitive inhibitor | IC50 (hSERT G498T [6]): 91 ± 6.29 µM | IC50 (hSERT P499G [7]): 11 ± 1.43 µM
